Reference: patent publication US20170217946A1, “AMINO-SUBSTITUTED ISOXAZOLES” (Bayer Pharma Aktiengesellschaft, priority 2014, published 2017)

Key:
[1] = tested on: spindle assembly checkpoint (phosphorylated histone H3 on serine 10) in HeLa cells; assay: SAC-Formation - Nocodazole-Induced Assay; format: cell-based; conditions: Homo sapiens, nocodazole 0.1 μg/ml, 24 h incubation
Excerpt: The spindle assembly checkpoint assures the proper segregation of chromosomes during mitosis. Upon entry into mitosis, chromosomes begin to condensate which is accompanied by the phosphorylation of histone H3 on serine 10. Dephosphorylation of histone H3 on serine 10 begins in anaphase and ends at early telophase. Accordingly, phosphorylation of histone H3 on serine 10 can be utilized as a marker of cells in mitosis. Nocodazole is a microtubule destabilizing substance. Paclitaxel is a microtubule stabilizing compound. Thus, nocodazole as well as paclitaxel interfere with microtubule dynamics and mobilize the spindle assembly checkpoint. […] The mitotic breakthrough can be detected by the decrease of cells with phosphorylation of histone H3 on serine 10. This decline is used as a marker to determine the capability of compounds of the present invention to induce a mitotic breakthrough. The typical morphological alteration of nuclei with a prematurely completed mitosis after SAC-inhibition can be monitored via image analysis routines supporting those findings.
The nocodazole and paclitaxel variations were used to focus on compounds that are capable of inhibiting a SAC induced by both microtubule destabilization as well as microtubule stabilization. […]
Cultivated cells of the human cervical tumor cell line HeLa (ATCC CCL-2) were plated at a density of 1000 cells/well in a 1536-well microtiter plate in 2 μl PAA Ham's F12 Medium supplemented with 1% (v/v) glutamine, 1% (v/v) penicillin, 1% (v/v) streptomycin and 10% (v/v) fetal calf serum. […] Images were acquired with a PERKIN ELMER OPERA™ High-Content Analysis reader. Images were analyzed with image analysis software MetaXpress™ from Molecular devices utilizing the Mitotic Index application module. In this assay both labels HOECHST 33342 and phosphorylated Histone H3 on serine 10 were measured. […] The raw assay data were further analyzed by four-parametric hill equation using Genedata's Assay Analyzer and Condoseo software.

human Bub1 = target: T1, human Bub1 (Homo sapiens, UniProt O43683); assay: Bub1 kinase assay (TR-FRET); format: biochemical; conditions: 10 μM ATP
T1 construct: catalytic domain of human Bub1 (amino acids 704-1085); His6 (N); made in house; host or cells: insect cells (Hi5)
Excerpt: Bub1-inhibitory activity of compounds of the present invention was quantified employing the Bub1 TR-FRET assay as described in the following paragraphs.
N-terminally His6-tagged recombinant catalytic domain of human Bub1 (amino acids 704-1085), expressed in insect cells (Hi5) and purified by Ni-NTA affinity chromatography and subsequent size exclusion chromatography, was used as enzyme. As substrate for the kinase reaction the biotinylated peptide biotin-Ahx-VLLPKKSFAEPG (C-terminus in amid form) was used which can be purchased e.g. form the company Biosyntan (Berlin, Germany).
For the assay 50 nl of a 100 fold concentrated solution of the test compound in DMSO was pipetted into a black low volume 384 well microtiter plate (Greiner Bio-One, Frickenhausen, Germany), 2 μl of a solution of Bub1 in aqueous assay buffer [50 mM Tris/HCl pH 7.5, 10 mM magnesium chloride (MgCl2), 200 mM potassium chloride (KCl), 1.0 mM dithiothreitol (DTT), 0.1 mM sodium ortho-vanadate, 1% (v/v) glycerol, 0.01% (w/v) bovine serum albumine (BSA), 0.005% (v/v) Trition X-100 (Sigma), 1× Complete EDTA-free protease inhibitor mixture (Roche)] were added and the mixture was incubated for 15 min at 22° C. to allow pre-binding of the test compounds to the enzyme before the start of the kinase reaction. Then the kinase reaction was started by the addition of 3 μl of a solution of adenosine-tri-phosphate (ATP, 16.7 μM=>final conc. in the 5 μl assay volume is 10 μM) and substrate (1.67 μM=>final conc. in the 5 μl assay volume is 1 μM) in assay buffer and the resulting mixture was incubated for a reaction time of 60 min at 22° C. The concentration of Bub1 was adjusted depending of the activity of the enzyme lot and was chosen appropriate to have the assay in the linear range, typical concentrations were in the range of 200 ng/ml. The reaction was stopped by the addition of 5 μl of a solution of TR-FRET detection reagents (0.2 μM streptavidine-XL665 [Cisbio Bioassays, Codolet, France] and 1 nM anti-phosho-Serine antibody [Merck Millipore, cat. #35-001] and 0.4 nM LANCE EU-W1024 labeled anti-mouse IgG antibody [Perkin-Elmer, product no. AD0077, as an alternative a Terbium-cryptate-labeled anti-mouse IgG antibody from Cisbio Bioassays can be used]) in an aqueous EDTA-solution (50 mM EDTA, 0.2% (w/v) bovine serum albumin in 100 mM HEPES pH 7.5).
The resulting mixture was incubated 1 h at 22° C. to allow the formation of complex between the phosphorylated biotinylated peptide and the detection reagents. Subsequently the amount of phosphorylated substrate was evaluated by measurement of the resonance energy transfer from the Eu-chelate to the streptavidine-XL. Therefore, the fluorescence emissions at 620 nm and 665 nm after excitation at 350 nm was measured in a TR-FRET reader, e.g. a Rubystar or Pherastar (both from BMG Labtechnologies, Offenburg, Germany) or a Viewlux (Perkin-Elmer). The ratio of the emissions at 665 nm and at […] was taken as the measure for the amount of phosphorylated substrate. The data were normalised (enzyme reaction without inhibitor=0% inhibition, all other assay components but no enzyme=100% inhibition).

T1 sequence (O43683 704-1085): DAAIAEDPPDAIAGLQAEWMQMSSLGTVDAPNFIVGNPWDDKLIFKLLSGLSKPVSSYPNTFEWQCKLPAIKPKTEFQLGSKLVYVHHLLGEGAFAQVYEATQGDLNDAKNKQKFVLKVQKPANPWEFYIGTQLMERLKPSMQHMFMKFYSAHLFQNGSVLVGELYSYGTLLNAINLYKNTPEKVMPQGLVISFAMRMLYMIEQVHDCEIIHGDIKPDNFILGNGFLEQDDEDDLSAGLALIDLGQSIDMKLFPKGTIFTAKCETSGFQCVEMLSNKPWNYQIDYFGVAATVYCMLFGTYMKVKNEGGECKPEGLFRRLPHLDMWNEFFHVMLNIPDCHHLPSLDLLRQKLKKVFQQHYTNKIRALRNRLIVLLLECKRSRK

IC50 [1] | IC50 (human Bub1) | Structure (SMILES)
620 nM | > 20000 nM | Cc1noc(Nc2cnc(C(=O)NC3CCN(CC(F)F)CC3)cn2)c1C(=O)Nc1ccc(F)c(F)c1 [Example 1b, N-[1-(2,2-Difluoroethyl)piperidin-4-yl]-5-({4-[(3,4-difluorophenyl)carbamoyl]-3-methyl-1,2-oxazol-5-yl}amino)pyrazine-2-carboxamide]
170 nM | > 20000 nM | Cc1noc(Nc2cnc(C(F)(F)F)cn2)c1C(=O)Nc1ccc(F)c(F)c1 [Example 1c, N-(3,4-Difluorophenyl)-3-methyl-5-{[5-(trifluoromethyl)pyrazin-2-yl]amino}-1,2-oxazole-4-carboxamide]
430 nM | > 20000 nM | Cc1noc(Nc2cnc(C(F)(F)F)cn2)c1C(=O)Nc1ccc(OC2CCN(CCC(F)(F)F)CC2)nc1 [Example 1a, 3-Methyl-5-{[5-(trifluoromethyl)pyrazin-2-yl]amino}-N-(6-{[1-(3,3,3-trifluoropropyl)-piperidin-4-yl]oxy}pyridin-3-yl)-1,2-oxazole-4-carboxamide]
